ChEMBL document CHEMBL3885861, “Open TG-GATES”

Species: Rattus norvegicus
Test: Open TG-GATES - Regimen: Single
Type: toxicity, organism-based, Sprague-Dawley
Design: regimen Single, gender Male, age 6 weeks
Conditions: in vivo, po, 100 mg/kg, route gavage, dose level Middle; for APTT / Bas / Eos / Fbg / Hb / Ht / Lym / MCH / MCHC / MCV / Mono / Neu / PT / Plat / RBC / Ret / WBC: tissue Blood; for KIDNEY_L / KIDNEY_R / KIDNEY_TOTAL: tissue Kidney; for LIVER: tissue Liver; for A/G / ALP / ALT / AST / BUN / CRE / Ca / Cl / DBIL / GLC / IP / K / LDH / Na / PL / RALB / TBIL / TC / TG / TP / gamma-GTP: tissue Plasma

`Brc1ccccc1` [BROMOBENZENE] gave a TERMINAL_BW (3 h) of 191 g, an APTT (3 h) of 16 s and a Bas (3 h) of 0%. The Eos (3 h) was 0.6%, the Fbg (3 h) was 266.6 mg/dL and the Hb (3 h) was 13.4 g/dL. For the same compound, the Ht (3 h) was 40.5%, the Lym (3 h) was 79.2% and the MCH (3 h) was 21.4 pg. It also gave an MCHC (3 h) of 33%, an MCV (3 h) of 64.7 fL and a Mono (3 h) of 3.6%. The Neu (3 h) was 16%, the PT (3 h) was 12.3 s and the Plat (3 h) was 111.5 x10_4/uL. The RBC (3 h) was 625.8 x10_4/ul, the Ret (3 h) was 10% and the WBC (3 h) was 74.4 x10_2/uL. The KIDNEY_L (3 h) was 0.8 g, the KIDNEY_R (3 h) was 0.8 g and the KIDNEY_TOTAL (3 h) was 1.6 g. The LIVER (3 h) was 7.8 g, the A/G (3 h) was 0.9 and the ALP (3 h) was 1591.2 IU/L. It also gave an ALT (3 h) of 51 IU/L, an AST (3 h) of 76.8 IU/L and a BUN (3 h) of 8.6 mg/dL. The CRE (3 h) was 0.2 mg/dL, the Ca (3 h) was 11 mg/dL and the Cl (3 h) was 105.8 meq/L. It also gave a DBIL (3 h) of 0.004 mg/dL, a GLC (3 h) of 183 mg/dL and an IP (3 h) of 11.1 mg/dL. For the same compound, the K (3 h) was 3.9 meq/L, the LDH (3 h) was 80.8 IU/L and the Na (3 h) was 142.8 meq/L. For the same compound, the PL (3 h) was 155.6 mg/dL, the RALB (3 h) was 2.7 g/dL and the TBIL (3 h) was 0.044 mg/dL. It also gave a TC (3 h) of 87.4 mg/dL, a TG (3 h) of 42.6 mg/dL and a TP (3 h) of 5.7 g/dL. The gamma-GTP (3 h) was 1.2 IU/L, the TERMINAL_BW (6 h) was 190.5 g and the APTT (6 h) was 15.9 s. It also gave a Bas (6 h) of 0%, an Eos (6 h) of 0.8% and a Fbg (6 h) of 269.2 mg/dL. It also gave a Hb (6 h) of 13.4 g/dL, a Ht (6 h) of 39.7% and a Lym (6 h) of 78.8%. The MCH (6 h) was 21.4 pg, the MCHC (6 h) was 33.8% and the MCV (6 h) was 63.3 fL. The Mono (6 h) was 2.4%, the Neu (6 h) was 17.6% and the PT (6 h) was 12.4 s. It also gave a Plat (6 h) of 107.8 x10_4/uL, an RBC (6 h) of 627 x10_4/ul and a Ret (6 h) of 8.6%. It also gave a WBC (6 h) of 68.9 x10_2/uL, a KIDNEY_L (6 h) of 0.8 g and a KIDNEY_R (6 h) of 0.8 g. The KIDNEY_TOTAL (6 h) was 1.6 g, the LIVER (6 h) was 6.8 g and the A/G (6 h) was 0.9. For the same compound, the ALP (6 h) was 1550 IU/L, the ALT (6 h) was 41.8 IU/L and the AST (6 h) was 75.4 IU/L. For the same compound, the BUN (6 h) was 9.4 mg/dL, the CRE (6 h) was 0.1 mg/dL and the Ca (6 h) was 10.8 mg/dL. It also gave a Cl (6 h) of 105.4 meq/L, a DBIL (6 h) of 0.014 mg/dL and a GLC (6 h) of 179.8 mg/dL. It also gave an IP (6 h) of 11 mg/dL, a K (6 h) of 3.8 meq/L and an LDH (6 h) of 64.4 IU/L. For the same compound, the Na (6 h) was 141.2 meq/L, the PL (6 h) was 137.8 mg/dL and the RALB (6 h) was 2.6 g/dL. It also gave a TBIL (6 h) of 0.054 mg/dL, a TC (6 h) of 78.4 mg/dL and a TG (6 h) of 41.4 mg/dL. It also gave a TP (6 h) of 5.6 g/dL, a gamma-GTP (6 h) of 1.6 IU/L and a TERMINAL_BW (9 h) of 190 g. The APTT (9 h) was 15.5 s, the Bas (9 h) was 0% and the Eos (9 h) was 0.6%. The Fbg (9 h) was 266.4 mg/dL, the Hb (9 h) was 13.5 g/dL and the Ht (9 h) was 40.2%. For the same compound, the Lym (9 h) was 76.8%, the MCH (9 h) was 21.5 pg and the MCHC (9 h) was 33.6%. The MCV (9 h) was 63.9 fL, the Mono (9 h) was 2.2% and the Neu (9 h) was 19.4%. The PT (9 h) was 12.3 s, the Plat (9 h) was 115.9 x10_4/uL and the RBC (9 h) was 629 x10_4/ul. For the same compound, the Ret (9 h) was 9.1%, the WBC (9 h) was 79.5 x10_2/uL and the KIDNEY_L (9 h) was 0.8 g. The KIDNEY_R (9 h) was 0.8 g, the KIDNEY_TOTAL (9 h) was 1.5 g and the LIVER (9 h) was 6.8 g. For the same compound, the A/G (9 h) was 0.9, the ALP (9 h) was 1400.4 IU/L and the ALT (9 h) was 39.4 IU/L. It also gave an AST (9 h) of 70.8 IU/L, a BUN (9 h) of 13 mg/dL and a CRE (9 h) of 0.2 mg/dL. For the same compound, the Ca (9 h) was 10.8 mg/dL, the Cl (9 h) was 107 meq/L and the DBIL (9 h) was 0.02 mg/dL. For the same compound, the GLC (9 h) was 179.2 mg/dL, the IP (9 h) was 10.8 mg/dL and the K (9 h) was 4 meq/L. The LDH (9 h) was 78.2 IU/L, the Na (9 h) was 141.8 meq/L and the PL (9 h) was 147.8 mg/dL. It also gave an RALB (9 h) of 2.6 g/dL, a TBIL (9 h) of 0.064 mg/dL and a TC (9 h) of 88 mg/dL. The TG (9 h) was 29.4 mg/dL, the TP (9 h) was 5.5 g/dL and the gamma-GTP (9 h) was 1.4 IU/L. The TERMINAL_BW (24 h) was 193.2 g, the APTT (24 h) was 15.4 s and the Bas (24 h) was 0%. For the same compound, the Eos (24 h) was 0.8%, the Fbg (24 h) was 224.4 mg/dL and the Hb (24 h) was 12.9 g/dL. It also gave a Ht (24 h) of 38%, a Lym (24 h) of 79.6% and an MCH (24 h) of 21.5 pg. It also gave an MCHC (24 h) of 33.9%, an MCV (24 h) of 63.3 fL and a Mono (24 h) of 2.8%. The Neu (24 h) was 16.4%, the PT (24 h) was 12.9 s and the Plat (24 h) was 112.9 x10_4/uL. The RBC (24 h) was 600.8 x10_4/ul, the Ret (24 h) was 8.5% and the WBC (24 h) was 84.8 x10_2/uL. For the same compound, the KIDNEY_L (24 h) was 0.9 g, the KIDNEY_R (24 h) was 0.9 g and the KIDNEY_TOTAL (24 h) was 1.7 g. For the same compound, the LIVER (24 h) was 8.9 g, the A/G (24 h) was 0.9 and the ALP (24 h) was 1694.4 IU/L. For the same compound, the ALT (24 h) was 52.2 IU/L, the AST (24 h) was 79 IU/L and the BUN (24 h) was 12 mg/dL. For the same compound, the CRE (24 h) was 0.2 mg/dL, the Ca (24 h) was 10.4 mg/dL and the Cl (24 h) was 106 meq/L. The DBIL (24 h) was 0.018 mg/dL, the GLC (24 h) was 186 mg/dL and the IP (24 h) was 8.1 mg/dL. For the same compound, the K (24 h) was 4 meq/L, the LDH (24 h) was 103.2 IU/L and the Na (24 h) was 142.6 meq/L. It also gave a PL (24 h) of 146.8 mg/dL, an RALB (24 h) of 2.5 g/dL and a TBIL (24 h) of 0.062 mg/dL. For the same compound, the TC (24 h) was 76.8 mg/dL, the TG (24 h) was 100 mg/dL and the TP (24 h) was 5.4 g/dL. The gamma-GTP (24 h) was 1.4 IU/L.
